Among the test systems are LOX IMVI melanoma; T-47D breast; KM20L2 colon; DLD-1 colon; DMS 114 small cell lung; DMS 273 small cell lung; SNB-78 CNS; HOP-18 NSCLC; M19-MEL melanoma; XF 498 CNS.
What all share (assay): inhibition of tumour cell growth, NCI panel, 48 h

The record followed here is PubChem BioAssay (NCI).

SMILES strings stand for the structures.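 In this assay, cells in 96-well plates receive the compound at five concentrations for 48 hours. Endpoints are linearly interpolated between the surrounding concentrations. TGI marks complete inhibition of growth.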 Where a SMILES comes first, the peptide text is derived from it. The star is where a group is joined. Boc = CC(C)(C)OC(=O)*; OBn = c1ccc(CO*)cc1

With `CC[C@](O)(CC(=O)O[C@H]1C(=O)O[C@@H]2C[C@H]3C(C)=CC(=O)[C@@H](O)[C@]3(C)[C@H]3[C@@]4(O)OC[C@]32[C@@H]1[C@@H](C)[C@H]4O)C(C)C`, the TGI in the assay with LOX IMVI melanoma and in the assay with T-47D breast was < 0.01 µM throughout.
On to `Cc1ccc(-n2cnc3c(N)nc(N)nc32)cc1`, for which the TGI with LOX IMVI melanoma and with T-47D breast was > 100 µM in each case.
For `CCOC(=O)C(C(=O)OCC)=C1NC2(c3ccccc3Nc3ccc(C)cc32)C(C#N)S1` (stereo not drawn), the TGI worked out at 24.4 µM in the assay on LOX IMVI melanoma and 34.6 µM with T-47D breast.
Regarding `Ic1ncnc2c1ncn2C1CCCO1` (stereo not drawn), the TGI with KM20L2 colon, in the assay on DLD-1 colon, in the assay with DMS 114 small cell lung, in the assay on DMS 273 small cell lung, with LOX IMVI melanoma and with SNB-78 CNS was > 100 µM in each case. For the same compound, the TGI in the assay with HOP-18 NSCLC, in the assay on M19-MEL melanoma and in the assay with XF 498 CNS was > 100 µM in each case.
On to `COC(=O)c1c(O)ccc2c1c1c(n2Cc2ccccc2)C(=O)c2ccccc2C1=O`, for which the TGI in the assay on LOX IMVI melanoma was 41.6 µM; in the assay on T-47D breast it was 42.1 µM.
On to `CC(C)(C)[Si](C)(C)O[C@@H](C(=O)OC1C=CCCC1)[C@@H](NC(=O)c1ccccc1)c1ccccc1` (stereo partly drawn), for which the TGI in the assay with LOX IMVI melanoma is 41.2 µM; with T-47D breast it was 98 µM.
The like results for `COc1ccc2c(c1)/C(=C\c1c(C)nc3n1CCS3)C(=O)N2` were, in that order, > 100 µM and > 100 µM.
As to `N#C/C(=C\c1cn(Cc2ccccc2)c2ccccc12)c1nn(-c2ccccc2)c(N)c1C#N`, the TGI is > 100 µM with LOX IMVI melanoma and 23.3 µM with T-47D breast.
The like results for `N=c1oc2ccc([N+](=O)[O-])cc2cc1C(=O)NCc1ccccc1` were, in that order, 32.2 µM and 67.3 µM.
Turning to `CC(=O)C(I(OS(=O)(=O)c1ccc(C)cc1)c1ccccc1)=P(c1ccccc1)(c1ccccc1)c1ccccc1`, the TGI in the assay on T-47D breast is 85.3 µM.
Regarding `C/C1=C/C(C)CC(C)OC(=O)C(C)NC(=O)C(Cc2ccc(O)c(I)c2)N(C)C(=O)CNC(=O)C(C)C1` (stereo not drawn), the TGI in the assay with LOX IMVI melanoma was < 0.01 µM; in the assay on T-47D breast it was > 100 µM.
In the same order, the values of `Cc1csc2nc3c(cnn3C)c(=S)n12` are > 100 µM and > 10 µM.
On to `O=C1CC(=O)NC(=NN2C(=O)/C(=C/C(=O)c3ccco3)N=C2c2ccccc2)N1`, for which, in the assay with T-47D breast, the TGI is > 100 µM.
For `Cc1ccc2c(c1)C(=O)/C(=N/Nc1ccc(Cl)cc1)CCO2`, the TGI in the assay on LOX IMVI melanoma and in the assay with T-47D breast was > 100 µM throughout.
Consider `COC(=O)C(Cc1c[nH]c2ccccc12)N=C1Nc2ccncc2S(=O)(=O)N1c1ccccc1` (stereo not drawn), for which the TGI in the assay on LOX IMVI melanoma was determined as 69.3 µM; with T-47D breast, 51 µM.
For the compound `O=C1NC(=O)C(Cc2ccccc2)(c2cccnc2)N1` (stereo not drawn), the TGI in the assay on LOX IMVI melanoma and with T-47D breast was > 100 µM in each case.
`O=c1c(C=Nc2ccccc2Cl)c(O)n(-c2ccccc2)c(=O)n1-c1ccccc1`: the TGI in the assay with LOX IMVI melanoma and in the assay on T-47D breast was > 100 µM each time.
`CCOC(=O)C(SCCO)C(C(=O)OCC)n1cnc2c(N)ncnc21` (stereo not drawn): the TGI in the assay on LOX IMVI melanoma came out at 15.1 µM; in the assay with T-47D breast it was 30.8 µM.
The like results for `ClC1(Cl)C(c2ccccc2)C1c1ccccc1` (stereo not drawn) were, in that order, 93 µM and > 100 µM.
As to `CCOC(=O)CCC(NC(=O)c1ccc(CNc2nc3ccccc3nc2C(=O)OCC)cc1)C(=O)OCC` (stereo not drawn), the TGI in the assay with LOX IMVI melanoma was > 100 µM.
Regarding `O=C1C(=O)c2c(oc(=O)c3ccccc23)-c2ccccc21`, the TGI in the assay on LOX IMVI melanoma and in the assay with T-47D breast was > 25 µM each time.
For `COc1ccc(OC)c2sc(N3C(=O)/C(=C/c4ccc(Cl)cc4)N=C3c3ccccc3)nc12`, the TGI in the assay with LOX IMVI melanoma was > 100 µM; in the assay with T-47D breast, 78.5 µM.
With `COC(=O)C1=C(O)C(C(=O)OC)[C@]2(O)[C@H](C(=O)OC)[C@H]1C[C@@H](c1ccc(F)cc1)[C@H]2C(=O)OC` (stereo partly drawn), the TGI in the assay on LOX IMVI melanoma was 42.1 µM; in the assay on T-47D breast, > 100 µM.
The like results for `COc1ccc2cc(CNCCCCCCCCCCCCNCc3ccc4cc(OC)ccc4c3)ccc2c1` were, in that order, 28.2 µM and 49.9 µM.
In the same order, the values of `COc1nc(C)nc2sc3c(c12)CCCC3` are > 100 µM and > 100 µM.
The like results for `CN(C)c1ccc(/C=N\NC(=O)c2ccccc2Nc2ccccc2C(=O)N/N=C/c2ccc(N(C)C)cc2)cc1` were, in that order, > 100 µM and > 100 µM.
With `Cc1cc(C)nc(NS(=O)(=O)c2ccc(NNc3c4ccccc4nc4c(C(=O)Nc5ccc(S(=O)(=O)Nc6ncccn6)cc5)cccc34)cc2)n1`, the TGI in the assay on LOX IMVI melanoma was 45.1 µM; in the assay on T-47D breast it was 74.3 µM.
In the same order, the values of `COc1cc(S(=O)(=O)Nc2nc(-c3ccc(N4C(=O)C(CC(=O)O)SC4c4ccccc4O)cc3)cs2)ccc1Cl` (stereo not drawn) are > 100 µM and > 100 µM.
In the same order, the values of `Cc1oc2c(c1C)S(=O)(=O)C(C#N)=C(c1ccccc1)N2` are > 100 µM and > 100 µM.
For the compound `O=C1CC(CC(O)[C@@H]2CCCC[C@@H]2O)CC(=O)N1c1ccccc1` (stereo partly drawn), in the assay with LOX IMVI melanoma, the TGI was > 100 µM.
On to `CC(C)C(NC(=O)C(Cc1ccccc1)NC(=O)OC(C)(C)C)C(=O)NCC(=O)OCc1ccccc1` (stereo not drawn) (Boc-Phe-Val-Gly-OBn; configuration not given here), for which the TGI amounted to 30.2 µM with LOX IMVI melanoma and 36.7 µM in the assay on T-47D breast.
Turning to `CC(C)=CCC[C@@H](C)C1=C(O)C(O)C(C)=C2N=C(c3ccccc3)C(=O)OC21` (stereo partly drawn), the TGI in the assay with LOX IMVI melanoma is > 25 µM; in the assay on T-47D breast it was 8.66 µM.
The like results for `COCC(N=CN1CCCc2ccccc2[C@@H]1CCCCl)C(C)(C)C` (stereo partly drawn) were, in that order, 24.2 µM and 84.1 µM.
The like results for `O=C(N/N=C/c1ccc2c(c1)OCO2)Nc1ccccc1Cl` were, in that order, > 100 µM and > 38.3 µM.
The like results for `O=[n+]1c2ccccc2n([O-])c2ccccc21` were, in that order, > 100 µM and > 100 µM.
